Results as given in ChEMBL document CHEMBL5131570, “Discovery of Potent Small-Molecule USP8 Inhibitors for the Treatment of Breast Cancer through Regulating ERα Expression” (J Med Chem, 2022).
pIC50: −log10 of the molar value. The source made the active and inactive calls. The rule behind the calls is not given here.

Assays:
[1] = Toxicity in BALB/c mouse xenografted with human MCF7 cells assessed as effect on alanine aminotransferase level at 5 to 20 mg/kg, […] every other day measured after 14 days; type: organism-based; settings: in vivo, 336 h, dose 5-20 mg/kg, time 14 day
[2] = target: T1, Ubiquitin carboxyl-terminal hydrolase 2 (Homo sapiens, UniProt O75604); assay: (§1) Inhibition of USP2 (267 to 599 residues) (unknown origin) catalytic domain expressed in Escherichia coli BL21 (DE3) cells using ubiquitin-rhodamine -110 as substrate incubated for 30 mins followed by substrate addition measured after 30 mins by ubiquitin-rhodamine-110 based fluorometric assay
T1 sequence (O75604 whole entry): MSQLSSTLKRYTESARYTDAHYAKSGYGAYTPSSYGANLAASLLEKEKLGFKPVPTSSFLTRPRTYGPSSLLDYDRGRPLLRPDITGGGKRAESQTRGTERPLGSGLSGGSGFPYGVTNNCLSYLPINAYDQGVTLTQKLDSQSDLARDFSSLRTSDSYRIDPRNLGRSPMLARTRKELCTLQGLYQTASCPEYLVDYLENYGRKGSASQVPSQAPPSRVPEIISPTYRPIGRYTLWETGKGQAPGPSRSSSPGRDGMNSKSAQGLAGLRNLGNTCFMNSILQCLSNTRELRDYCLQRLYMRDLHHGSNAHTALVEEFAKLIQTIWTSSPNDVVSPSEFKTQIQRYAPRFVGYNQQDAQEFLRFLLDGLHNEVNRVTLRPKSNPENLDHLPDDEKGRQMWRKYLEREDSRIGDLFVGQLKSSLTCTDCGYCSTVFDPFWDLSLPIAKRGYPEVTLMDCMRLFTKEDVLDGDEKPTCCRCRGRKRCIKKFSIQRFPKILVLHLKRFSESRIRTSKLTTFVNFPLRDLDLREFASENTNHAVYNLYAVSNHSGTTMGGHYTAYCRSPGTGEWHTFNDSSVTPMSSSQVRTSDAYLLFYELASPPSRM

[3] = Toxicity in BALB/c mouse xenografted with human MCF7 cells assessed as effect on kidney at 5 to 20 mg/kg, […] every other day measured after 14 days by hematoxylin and eosin staining based analysis; type: organism-based; settings: in vivo, 336 h, dose 5-20 mg/kg, time 14 day
[4] = target: T2, Ubiquitin carboxyl-terminal hydrolase 8 (Homo sapiens, UniProt P40818); assay: as §1, with “N-terminal His6-tagged USP8” for “USP2 (267 to 599 residues)”, “domain (734 to 1110 residues)” for “domain”, “cells assessed as deubiquitinating activity” for “cells”
T2 sequence (P40818 whole entry): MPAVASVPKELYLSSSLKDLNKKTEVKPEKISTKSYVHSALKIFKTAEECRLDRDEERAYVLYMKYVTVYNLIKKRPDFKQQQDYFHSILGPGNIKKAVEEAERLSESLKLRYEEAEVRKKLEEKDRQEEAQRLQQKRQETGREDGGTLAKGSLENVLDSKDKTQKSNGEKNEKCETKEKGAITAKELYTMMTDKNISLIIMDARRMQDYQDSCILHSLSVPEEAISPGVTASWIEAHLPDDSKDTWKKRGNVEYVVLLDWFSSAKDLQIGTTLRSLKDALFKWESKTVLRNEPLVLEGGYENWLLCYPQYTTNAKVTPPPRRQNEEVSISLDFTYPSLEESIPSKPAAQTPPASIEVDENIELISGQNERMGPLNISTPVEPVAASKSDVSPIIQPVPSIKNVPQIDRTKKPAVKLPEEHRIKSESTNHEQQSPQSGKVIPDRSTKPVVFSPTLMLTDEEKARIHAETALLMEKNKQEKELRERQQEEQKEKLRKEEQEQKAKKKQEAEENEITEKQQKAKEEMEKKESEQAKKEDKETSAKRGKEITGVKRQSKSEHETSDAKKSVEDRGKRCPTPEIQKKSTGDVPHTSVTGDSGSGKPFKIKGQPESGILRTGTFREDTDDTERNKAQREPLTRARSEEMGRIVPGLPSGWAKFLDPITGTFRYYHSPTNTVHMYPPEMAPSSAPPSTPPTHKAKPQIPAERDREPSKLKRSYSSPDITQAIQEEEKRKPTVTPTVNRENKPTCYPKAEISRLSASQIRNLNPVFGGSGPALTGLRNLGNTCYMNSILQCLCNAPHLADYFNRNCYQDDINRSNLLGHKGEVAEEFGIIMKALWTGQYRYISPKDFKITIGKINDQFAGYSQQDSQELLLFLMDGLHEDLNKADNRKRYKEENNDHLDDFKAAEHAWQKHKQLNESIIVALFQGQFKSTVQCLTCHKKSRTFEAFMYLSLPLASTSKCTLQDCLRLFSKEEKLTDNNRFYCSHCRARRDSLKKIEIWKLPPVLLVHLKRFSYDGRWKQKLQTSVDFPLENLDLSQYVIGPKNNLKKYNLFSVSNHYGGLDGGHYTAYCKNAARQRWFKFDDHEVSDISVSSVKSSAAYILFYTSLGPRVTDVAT

[5] = target: T3, Ubiquitin carboxyl-terminal hydrolase 8 (Homo sapiens) (UniProt P40818); assay: Inhibition of N-terminal His6-tagged USP8 catalytic domain (734 to 1110 residues) in HEK293T intact cells up to 100 uM in presence of HA-Ub-VS probe by USP8 antibody based Western blotting assay; type: cell-based
T3 sequence (whole entry): T2 sequence (P40818 whole entry)

MCF7 [6] = assay: Antiproliferative activity against human MCF7 cells assessed as reduction in colony formation at 3 uM incubated for 7 days by crystal violet staining based colony formation assay; type: functional, cell-based; settings: time 7.0 day
[7] = Toxicity in BALB/c mouse xenografted with human MCF7 cells assessed as effect on heart at 5 to 20 mg/kg, […] every other day measured after 14 days by hematoxylin and eosin staining based analysis; type: organism-based; settings: in vivo, 336 h, dose 5-20 mg/kg, time 14 day
MCF7 [8] = assay: Induction of apoptosis in human MCF7 cells assessed as reduction in ErbB2 expression level up to 5 uM incubated for 24 hrs by Western blotting analysis; type: functional, cell-based
[9] = Toxicity in BALB/c mouse xenografted with human MCF7 cells assessed as change in body weight at 5 to 20 mg/kg, […] every other day for 14 days; type: organism-based; settings: in vivo, 336 h, dose 5-20 mg/kg, time 14 day
MCF7 [10] = assay: Downregulation of ERalpha expression in human MCF7 cells measured after 24 hrs by Western blotting analysis; type: functional, cell-based; settings: dose 0.5-5 µM, DDE = dose-dependent effect
MCF7 [11] = assay: Induction of apoptosis in human MCF7 cells assessed as reduction in ErbB3 expression level up to 5 uM incubated for 24 hrs by Western blotting analysis; type: functional, cell-based
MCF7 [12] = assay: Downregulation of ERalpha mRNA level in human MCF7 cells up to 5 uM measured after 24 hrs by RT-qPCR analysis; type: functional, cell-based
MCF7 [13] = assay: Induction of apoptosis in human MCF7 cells assessed as increase in apoptotic cells at 1 uM incubated for 12 hrs by AnnexinV-FITC/propidium iodide staining based flow cytometry relative to control (reference value: 2.00 %); type: functional
MCF7 [14] = assay: Downregulation of progesterone receptor mRNA level in human MCF7 cells up to 5 uM measured after 24 hrs by RT-qPCR analysis; type: functional, cell-based
MCF7 [15] = assay: Antitumor activity against human MCF7 cells xenografted in BALB/c mouse assessed as inhibition of tumor growth at 20 mg/kg, ip administered via gavage every other day for 14 days; type: functional, organism-based; settings: time 14.0 day

In the case of `Cc1n[nH]c(C)c1Oc1c(O)cc(O)c2c(=O)cc(-c3ccc(N4CCN(c5ccccn5)CC4)cc3)oc12`, the Activity [1] was “Non-Toxic”, the pIC50 [2] was 4.30 and the Activity [3] was “Non-Toxic”. For the same compound, the pIC50 [4] was 5.92, the inhibition [5] was “Active” and the Activity (MCF7 [6]) was “Active”. For the same compound, the Activity [7] was “Non-Toxic”, the Activity (MCF7 [8]) was “Active” and the Activity [9] was “Non-Toxic”. The Activity (MCF7 [10]) was “Dde”, the Activity (MCF7 [11]) was “Active” and the Activity (MCF7 [12]) was “Active”. The Activity (MCF7 [13]) was 3.45%, the Activity (MCF7 [14]) was “Active” and the Activity (MCF7 [15]) was “Active”.
